≈ marks a conversion by molar mass, not a printed value. Like-named read-outs stand apart in the source and are kept apart here.
Key:
Type in all cases: cell-based
S. aureus = test: Broth dilution MIC determination (CLSI) against S. aureus strains; settings: for MIC: Staphylococcus aureus
In short: (§1)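 Following CLSI procedures, broth dilution is used to find the MIC for each strain. Controls: azithromycin and solithromycin.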

S. pneumoniae = test: Broth dilution MIC determination (CLSI) against S. pneumoniae strains; settings: for MIC: Streptococcus pneumoniae
In short: as §1

S. pyogenes = test: Broth dilution MIC determination (CLSI) against S. pyogenes strains; settings: Streptococcus pyogenes
In short: as §1

E. faecalis = test: Broth dilution MIC determination (CLSI) against E. faecalis strains; settings: for MIC: Enterococcus faecalis
In short: as §1

E. coli = test: Broth dilution MIC determination (CLSI) against E. coli strains; settings: Escherichia coli
In short: as §1

A. baumannii = test: Broth dilution MIC determination (CLSI) against A. baumannii strains; settings: Acinetobacter baumannii
In short: as §1

K. pneumoniae = test: Broth dilution MIC determination (CLSI) against K. pneumoniae strains; settings: for MIC: Klebsiella pneumoniae
In short: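 Azithromycin and solithromycin served as controls; MICs were obtained by standard CLSI broth dilution on a strain panel including multidrug-resistant and macrolide-resistant isolates.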

P. aeruginosa = test: Broth dilution MIC determination (CLSI) against P. aeruginosa strains; settings: Pseudomonas aeruginosa
In short: as §1

H. influenzae = test: Broth dilution MIC determination (CLSI) against H. influenzae strains; settings: for MIC: Haemophilus influenzae
Source text: Minimum inhibitory concentrations (MICs) for macrolides described herein have been determined for unique strains of S. aureus, S. pneumoniae, S. pyogenes, E. faecalis, E. coli, A. baumannii, K. pneumoniae, P. aeruginosa, and H. influenzae, including several multidrug-resistant strains, with a special focus on macrolide resistant mechanisms. Azithromycin and solithromycin were included as control compounds. CLSI standard procedures for broth dilution MIC determination were used. Data for exemplary compounds described herein is shown in Tables M1-M7 and in Tables N1-N4.

[1] = MRSA / USA100, MRSA: USA100, read-out: MIC S. aureus MRSA: USA100
[2] = MRSA / USA300, MRSA: USA300, read-out: MIC S. aureus MRSA: USA300
[3] = USA600, USA600, GISA, read-out: MIC S. aureus USA600, GISA
[4] = read-out: MIC S. aureus erm A genotype
[5] = ATCC49619, ATCC49619, read-out: MIC S. pneumoniae ATCC49619
[6] = erm B + tet(M, O) genotype, read-out: MIC S. pneumoniae erm B + tet(M, O) genotype
[7] = ATCC19615, ATCC19615, read-out: MIC S. pyogenes ATCC19615
[8] = macrolide-resistant, read-out: MIC S. pyogenes macrolide-resistant
[9] = Vancomycin-resistant, read-out: MIC E. faecalis Vancomycin-resistant
[10] = ATCC25922, ATCC25922, read-out: MIC E. coli ATCC25922
[11] = read-out: MIC E. coli CTX-M-14, CTX-M-14
[12] = read-out: MIC E. coli NDM-1, NDM-1
[13] = read-out: MIC E. coli TEM-1, TEM-1
[14] = ATCC19606, ATCC19606, read-out: MIC A. baumannii ATCC19606
[15] = IMP-4, read-out: MIC A. baumannii IMP-4
[16] = chromosomal class C, read-out: MIC A. baumannii chromosomal class C
[17] = imipenem-resistant, read-out: MIC A. baumannii imipenem-resistant
[18] = ATCC10031, ATCC10031, read-out: MIC K. pneumoniae ATCC10031
[19] = KPC-2, read-out: MIC K. pneumoniae KPC-2
[20] = SHV-12, read-out: MIC K. pneumoniae SHV-12
[21] = ATCC27853, read-out: MIC P. aeruginosa ATCC27853
[22] = read-out: MIC P. aeruginosa HPA101-1477
[23] = ATCC49247, ATCC49247, read-out: MIC H. influenzae ATCC49247
[24] = ATCC29213, ATCC29213, read-out: MIC S. aureus ATCC29213
[25] = erm B + mef A genotype, read-out: MIC S. pneumoniae erm B + mef A genotype
[26] = ATCC29212, ATCC29212, read-out: MIC E. faecalis ATCC29212
[27] = TEM-10, read-out: MIC K. pneumoniae TEM-10
[28] = erythro > 4, azithro 1, read-out: MIC H. influenzae erythro > 4, azithro 1

SMILES	MIC (S. aureus; [1]) [µg/mL]	MIC (S. aureus; [2]) [µg/mL]	MIC (S. aureus; [3]) [µg/mL]	MIC (S. aureus; [4]) [µg/mL]	MIC (S. pneumoniae; [5]) [µg/mL]	MIC (S. pneumoniae; [6]) [µg/mL]	MIC (S. pyogenes; [7]) [µg/mL]	MIC (S. pyogenes; [8]) [µg/mL]	MIC (E. faecalis; [9]) [µg/mL]	MIC (E. coli; [10]) [µg/mL]	MIC (E. coli; [11]) [µg/mL]	MIC (E. coli; [12]) [µg/mL]	MIC (E. coli; [13]) [µg/mL]	MIC (A. baumannii; [14]) [µg/mL]	MIC (A. baumannii; [15]) [µg/mL]	MIC (A. baumannii; [16]) [µg/mL]	MIC (A. baumannii; [17]) [µg/mL]	MIC (K. pneumoniae; [18]) [µg/mL]	MIC (K. pneumoniae; [19]) [µg/mL]	MIC (K. pneumoniae; [20]) [µg/mL]	also measured
CC[C@H]1OC(=O)[C@H](C)C(=O)[C@H](C)[C@@H](O[C@@H]2OC(Cn3cc(-c4ccccn4)nn3)CC(N(C)C)C2O)[C@](C)(OC)C[C@@H](C)CN[C@H](C)[C@H]2N(CCCCn3cc(-c4cccc(N)c4)nn3)C(=O)O[C@]12C (some centres unmarked) [FSM-22111]	> 32	> 32	> 32	> 32	≤ 0.0312	≤ 0.0312	≤ 0.0312	1 (≈ 1.03 µM)	> 32	16 (≈ 16.5 µM)	> 32	32 (≈ 32.9 µM)	16 (≈ 16.5 µM)	16 (≈ 16.5 µM)	> 32	16 (≈ 16.5 µM)	16 (≈ 16.5 µM)	8 (≈ 8.23 µM)	32 (≈ 32.9 µM)	> 32	MIC S. aureus ATCC29213 (S. aureus; ATCC29213): 2 µg/mL (≈ 2.06 µM); MIC S. pneumoniae erm B + mef A genotype (S. pneumoniae; erm B + mef A genotype): 2 µg/mL; MIC E. faecalis ATCC29212 (E. faecalis; ATCC29212): 0.25 µg/mL (≈ 0.257 µM); MIC K. pneumoniae TEM-10 (K. pneumoniae; TEM-10): 8 µg/mL (≈ 8.23 µM); MIC (P. aeruginosa; [21]): > 32 µg/mL; MIC (P. aeruginosa; [22]): > 32 µg/mL; MIC (H. influenzae; [23]): 2 µg/mL (≈ 2.06 µM); MIC H. influenzae erythro > 4, azithro 1 (H. influenzae; erythro > 4, azithro 1): 1 µg/mL (≈ 1.03 µM)
CC[C@H]1OC(=O)[C@H](C)C(=O)[C@H](C)[C@@H](O[C@@H]2OC(Cn3cc(-c4cccc(N)n4)nn3)CC(N(C)C)C2O)[C@](C)(OC)C[C@@H](C)CN[C@H](C)[C@H]2N(CCCCn3cc(-c4cccc(N)c4)nn3)C(=O)O[C@]12C (some centres unmarked) [FSM-22124]	> 32	> 32	> 32	> 32	≤ 0.0312	≤ 0.0312	≤ 0.0312	2 (≈ 2.03 µM)	> 32	16 (≈ 16.2 µM)	> 32	> 32	16 (≈ 16.2 µM)	16 (≈ 16.2 µM)	> 32	16 (≈ 16.2 µM)	16 (≈ 16.2 µM)	4 (≈ 4.05 µM)	32 (≈ 32.4 µM)	> 32	MIC (S. aureus; [24]): 4 µg/mL (≈ 4.05 µM); MIC (S. pneumoniae; [25]): 0.5 µg/mL; MIC (E. faecalis; [26]): 0.25 µg/mL (≈ 0.253 µM); MIC (K. pneumoniae; [27]): 8 µg/mL (≈ 8.1 µM); MIC (P. aeruginosa; [21]): > 32 µg/mL; MIC (P. aeruginosa; [22]): > 32 µg/mL; MIC (H. influenzae; [23]): 2 µg/mL (≈ 2.03 µM); MIC (H. influenzae; [28]): 1 µg/mL (≈ 1.01 µM)
CC[C@H]1OC(=O)[C@H](C)C(=O)[C@H](C)[C@@H](O[C@@H]2OC(Cn3cc(-c4cnc(N)s4)nn3)CC(N(C)C)C2O)[C@](C)(OC)C[C@@H](C)CN[C@H](C)[C@H]2N(CCCCn3cc(-c4cccc(N)c4)nn3)C(=O)O[C@]12C (some centres unmarked) [FSM-22125]	> 32	> 32	> 32	> 32	≤ 0.0312	≤ 0.0312	≤ 0.0312	4 (≈ 4.03 µM)	> 32	32 (≈ 32.2 µM)	> 32	> 32	16 (≈ 16.1 µM)	> 32	> 32	32 (≈ 32.2 µM)	> 32	32 (≈ 32.2 µM)	> 32	> 32	MIC (S. aureus; [24]): 4 µg/mL (≈ 4.03 µM); MIC (S. pneumoniae; [25]): > 32 µg/mL; MIC (S. pneumoniae; read-out: MIC S. pneumoniae mef A genotype, mef A genotype): 4 µg/mL (≈ 4.03 µM); MIC (S. pneumoniae; read-out: MIC S. pneumoniae mef A genotype, mef A genotype, first of two such columns (c3)): 0.5 µg/mL (≈ 0.503 µM); MIC (E. faecalis; [26]): 0.5 µg/mL (≈ 0.503 µM); MIC (K. pneumoniae; [27]): 32 µg/mL (≈ 32.2 µM); MIC (P. aeruginosa; [21]): > 32 µg/mL; MIC (P. aeruginosa; [22]): > 32 µg/mL; MIC (H. influenzae; [23]): 4 µg/mL (≈ 4.03 µM); MIC (H. influenzae; [28]): 2 µg/mL (≈ 2.01 µM)

Reference: patent US11535643B2, “Macrolides with modified desosamine sugars and uses thereof” (President and Fellows of Harvard College, priority 2015, dated 2022)
